Experimental data published in ChEMBL document CHEMBL1143113, “Design and synthesis of 4-[(s-triazin-2-ylamino)methyl]-N-(2-aminophenyl)-benzamides and their analogues as a novel class of histone deacetylase inhibitors” (Bioorg Med Chem Lett, 2008).
Calls of active or inactive are those of the source. The rule behind the calls is not given here.

Columns and labels:
Histone deacetylase 1 [1] = molecular target: T1, Histone deacetylase 1 (Homo sapiens, UniProt Q13547); experiment: Inhibition of human recombinant HDAC1
HCT-116 [2] = experiment: Cytotoxicity against human HCT116 cells by MTT assay; format: functional, cell-based
[3] = Induction of histone H4 acetylation in human […]; format: functional, cell-based
HMEC = experiment: Cytotoxicity against human HMEC cells by MTT assay; format: cell-based
Histone deacetylase 1 [4] = molecular target: T1, Histone deacetylase 1; experiment: Activity against HDAC1
[5] = molecular target: Histone deacetylase 2 (Homo sapiens) (UniProt Q92769); experiment: Activity against HDAC2
[6] = molecular target: Histone deacetylase 3 (Homo sapiens) (UniProt O15379); experiment: Activity against HDAC3
[7] = molecular target: Histone deacetylase 4 (Homo sapiens) (UniProt P56524); experiment: Activity against HDAC4
[8] = molecular target: Histone deacetylase 5 (Homo sapiens) (UniProt Q9UQL6); experiment: Activity against HDAC5
[9] = molecular target: T2, Protein deacetylase HDAC6 (Homo sapiens) (UniProt Q9UBN7); experiment: Activity against HDAC6
T2 sequence (whole entry): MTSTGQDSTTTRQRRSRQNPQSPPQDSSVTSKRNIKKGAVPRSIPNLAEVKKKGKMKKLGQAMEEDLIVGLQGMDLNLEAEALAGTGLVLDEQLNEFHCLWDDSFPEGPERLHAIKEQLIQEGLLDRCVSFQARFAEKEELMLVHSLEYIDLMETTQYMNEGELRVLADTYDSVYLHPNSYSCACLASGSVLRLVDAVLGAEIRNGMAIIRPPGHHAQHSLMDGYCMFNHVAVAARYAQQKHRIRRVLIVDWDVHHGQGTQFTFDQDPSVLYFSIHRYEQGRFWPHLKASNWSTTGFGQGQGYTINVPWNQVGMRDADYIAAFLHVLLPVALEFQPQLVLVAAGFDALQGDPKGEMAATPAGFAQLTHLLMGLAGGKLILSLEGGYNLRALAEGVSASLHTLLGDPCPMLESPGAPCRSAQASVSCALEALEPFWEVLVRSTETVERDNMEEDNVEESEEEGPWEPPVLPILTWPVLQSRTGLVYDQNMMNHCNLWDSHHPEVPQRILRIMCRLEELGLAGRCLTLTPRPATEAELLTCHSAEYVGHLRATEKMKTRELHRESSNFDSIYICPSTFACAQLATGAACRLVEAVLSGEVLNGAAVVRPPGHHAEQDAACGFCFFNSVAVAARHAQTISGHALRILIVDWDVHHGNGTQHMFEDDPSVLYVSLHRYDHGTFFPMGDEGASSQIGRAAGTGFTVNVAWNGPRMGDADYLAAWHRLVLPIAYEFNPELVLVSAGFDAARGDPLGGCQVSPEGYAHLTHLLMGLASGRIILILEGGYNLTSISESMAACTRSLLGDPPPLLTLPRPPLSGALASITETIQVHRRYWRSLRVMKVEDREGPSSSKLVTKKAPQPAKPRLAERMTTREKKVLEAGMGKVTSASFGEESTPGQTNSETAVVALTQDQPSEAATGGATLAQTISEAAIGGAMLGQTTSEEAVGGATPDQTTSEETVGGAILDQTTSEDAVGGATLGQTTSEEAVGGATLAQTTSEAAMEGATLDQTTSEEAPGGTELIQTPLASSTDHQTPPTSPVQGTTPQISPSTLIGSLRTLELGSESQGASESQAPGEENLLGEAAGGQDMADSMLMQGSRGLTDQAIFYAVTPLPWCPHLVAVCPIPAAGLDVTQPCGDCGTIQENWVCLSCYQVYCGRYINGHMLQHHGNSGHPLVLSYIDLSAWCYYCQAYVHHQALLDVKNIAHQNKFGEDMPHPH

[10] = molecular target: T3, Histone deacetylase 7 (Homo sapiens) (UniProt Q8WUI4); experiment: Activity against HDAC7
T3 sequence (whole entry): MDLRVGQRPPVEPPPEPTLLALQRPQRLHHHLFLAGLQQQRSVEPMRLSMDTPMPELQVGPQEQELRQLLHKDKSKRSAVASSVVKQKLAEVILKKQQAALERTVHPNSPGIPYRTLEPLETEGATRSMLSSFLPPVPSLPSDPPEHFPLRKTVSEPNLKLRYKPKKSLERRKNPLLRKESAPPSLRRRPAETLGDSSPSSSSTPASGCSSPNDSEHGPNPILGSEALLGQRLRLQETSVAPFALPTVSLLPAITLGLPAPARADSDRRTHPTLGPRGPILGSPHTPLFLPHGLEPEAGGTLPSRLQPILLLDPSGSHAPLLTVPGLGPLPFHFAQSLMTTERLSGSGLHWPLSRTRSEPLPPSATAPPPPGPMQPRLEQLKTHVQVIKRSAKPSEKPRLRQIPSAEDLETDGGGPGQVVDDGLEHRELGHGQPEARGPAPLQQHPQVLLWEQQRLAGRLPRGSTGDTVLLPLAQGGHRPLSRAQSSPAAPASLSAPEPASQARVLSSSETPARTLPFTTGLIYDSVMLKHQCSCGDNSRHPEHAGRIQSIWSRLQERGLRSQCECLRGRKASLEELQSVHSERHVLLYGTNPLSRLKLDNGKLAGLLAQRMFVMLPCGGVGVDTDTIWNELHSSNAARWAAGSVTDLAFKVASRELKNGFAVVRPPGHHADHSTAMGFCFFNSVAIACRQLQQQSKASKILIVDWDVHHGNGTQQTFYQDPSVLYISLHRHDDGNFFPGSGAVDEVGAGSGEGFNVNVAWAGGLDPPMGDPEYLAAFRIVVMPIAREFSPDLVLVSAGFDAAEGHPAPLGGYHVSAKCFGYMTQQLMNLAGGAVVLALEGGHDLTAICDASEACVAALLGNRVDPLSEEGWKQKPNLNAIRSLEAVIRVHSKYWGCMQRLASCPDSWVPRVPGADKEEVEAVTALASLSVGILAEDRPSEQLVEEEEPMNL

HCT-116 [11] = experiment: Antitumor activity in human HCT116 tumor bearing mouse at 40 mg/kg/day, ip after 2 weeks; format: functional; settings: HCT-116, ip, 336 h, route intraperitoneal
HCT-116 [12] = experiment: Antitumor activity in human HCT116 tumor bearing mouse at 20 mg/kg/day, ip after 2 weeks; format: functional; settings: HCT-116, ip, 336 h, route intraperitoneal

Sequence of Histone deacetylase 2 (Homo sapiens) (Q92769 whole entry): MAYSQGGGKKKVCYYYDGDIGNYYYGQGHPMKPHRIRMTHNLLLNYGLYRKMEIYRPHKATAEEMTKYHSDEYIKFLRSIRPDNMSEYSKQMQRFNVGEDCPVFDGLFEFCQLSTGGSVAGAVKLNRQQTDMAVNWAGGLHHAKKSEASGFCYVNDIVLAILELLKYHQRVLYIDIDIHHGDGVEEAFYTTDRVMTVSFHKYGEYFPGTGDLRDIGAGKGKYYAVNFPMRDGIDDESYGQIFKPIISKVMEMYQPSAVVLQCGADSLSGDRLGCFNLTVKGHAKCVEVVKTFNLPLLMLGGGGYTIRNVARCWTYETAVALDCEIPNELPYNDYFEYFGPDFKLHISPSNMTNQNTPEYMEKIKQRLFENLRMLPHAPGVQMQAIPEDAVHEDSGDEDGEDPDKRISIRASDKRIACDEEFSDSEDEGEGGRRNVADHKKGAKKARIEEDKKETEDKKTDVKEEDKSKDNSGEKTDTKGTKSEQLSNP
Sequence of Histone deacetylase 5 (Homo sapiens) (Q9UQL6 whole entry): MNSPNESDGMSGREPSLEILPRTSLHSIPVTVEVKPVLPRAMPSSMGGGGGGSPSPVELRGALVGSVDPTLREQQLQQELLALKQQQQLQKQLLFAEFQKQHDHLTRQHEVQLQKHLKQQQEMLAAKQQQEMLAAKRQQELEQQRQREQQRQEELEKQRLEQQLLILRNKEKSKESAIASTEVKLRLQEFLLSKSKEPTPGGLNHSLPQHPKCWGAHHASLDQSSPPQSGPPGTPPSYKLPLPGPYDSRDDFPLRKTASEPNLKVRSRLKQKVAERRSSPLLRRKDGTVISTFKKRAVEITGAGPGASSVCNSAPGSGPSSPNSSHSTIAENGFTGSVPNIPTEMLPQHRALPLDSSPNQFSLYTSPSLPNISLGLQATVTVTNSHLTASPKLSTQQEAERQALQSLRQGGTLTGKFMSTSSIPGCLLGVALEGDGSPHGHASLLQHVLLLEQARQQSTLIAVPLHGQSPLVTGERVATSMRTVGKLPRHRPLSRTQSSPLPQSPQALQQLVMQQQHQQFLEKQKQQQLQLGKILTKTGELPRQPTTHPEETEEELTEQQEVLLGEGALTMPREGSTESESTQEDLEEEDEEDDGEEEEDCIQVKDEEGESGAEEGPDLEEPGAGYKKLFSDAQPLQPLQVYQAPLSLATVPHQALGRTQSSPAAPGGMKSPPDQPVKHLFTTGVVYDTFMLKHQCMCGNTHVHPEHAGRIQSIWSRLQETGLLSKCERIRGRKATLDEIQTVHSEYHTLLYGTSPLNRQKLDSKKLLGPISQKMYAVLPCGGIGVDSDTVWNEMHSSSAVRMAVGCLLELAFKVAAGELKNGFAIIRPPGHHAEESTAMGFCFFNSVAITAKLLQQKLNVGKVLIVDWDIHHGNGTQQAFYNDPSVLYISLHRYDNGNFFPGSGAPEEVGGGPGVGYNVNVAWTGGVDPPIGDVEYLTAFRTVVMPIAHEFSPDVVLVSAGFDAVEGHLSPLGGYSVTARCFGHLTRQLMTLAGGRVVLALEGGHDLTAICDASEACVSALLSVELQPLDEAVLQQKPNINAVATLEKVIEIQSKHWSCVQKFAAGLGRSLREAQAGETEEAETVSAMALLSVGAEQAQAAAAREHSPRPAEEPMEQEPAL
Sequence of Histone deacetylase 3 (Homo sapiens) (O15379 whole entry): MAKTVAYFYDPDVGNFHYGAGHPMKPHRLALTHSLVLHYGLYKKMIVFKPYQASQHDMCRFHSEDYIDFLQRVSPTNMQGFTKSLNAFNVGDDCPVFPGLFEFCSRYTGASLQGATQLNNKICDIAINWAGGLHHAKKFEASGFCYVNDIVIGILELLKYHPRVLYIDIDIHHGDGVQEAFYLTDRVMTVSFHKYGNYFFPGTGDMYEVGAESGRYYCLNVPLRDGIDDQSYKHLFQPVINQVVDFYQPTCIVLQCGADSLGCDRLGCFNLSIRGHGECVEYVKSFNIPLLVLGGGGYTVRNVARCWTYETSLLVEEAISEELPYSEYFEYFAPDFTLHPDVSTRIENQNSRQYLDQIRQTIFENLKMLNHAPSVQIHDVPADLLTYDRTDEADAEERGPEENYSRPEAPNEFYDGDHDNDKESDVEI
T1 sequence (Q13547 whole entry): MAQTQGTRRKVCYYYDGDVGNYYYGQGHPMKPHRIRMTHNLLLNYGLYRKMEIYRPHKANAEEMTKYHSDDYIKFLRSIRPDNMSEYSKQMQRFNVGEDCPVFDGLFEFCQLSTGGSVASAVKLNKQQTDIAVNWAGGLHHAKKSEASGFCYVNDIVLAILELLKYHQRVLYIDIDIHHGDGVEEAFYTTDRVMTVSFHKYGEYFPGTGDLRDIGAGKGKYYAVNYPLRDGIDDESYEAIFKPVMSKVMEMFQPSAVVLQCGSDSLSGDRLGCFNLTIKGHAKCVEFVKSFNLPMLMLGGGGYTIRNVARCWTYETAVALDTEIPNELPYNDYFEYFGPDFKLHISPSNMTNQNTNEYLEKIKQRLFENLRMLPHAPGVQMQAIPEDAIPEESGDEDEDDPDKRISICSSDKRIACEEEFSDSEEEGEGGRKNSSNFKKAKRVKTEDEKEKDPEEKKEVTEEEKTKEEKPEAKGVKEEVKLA
Sequence of Histone deacetylase 4 (Homo sapiens) (P56524 whole entry): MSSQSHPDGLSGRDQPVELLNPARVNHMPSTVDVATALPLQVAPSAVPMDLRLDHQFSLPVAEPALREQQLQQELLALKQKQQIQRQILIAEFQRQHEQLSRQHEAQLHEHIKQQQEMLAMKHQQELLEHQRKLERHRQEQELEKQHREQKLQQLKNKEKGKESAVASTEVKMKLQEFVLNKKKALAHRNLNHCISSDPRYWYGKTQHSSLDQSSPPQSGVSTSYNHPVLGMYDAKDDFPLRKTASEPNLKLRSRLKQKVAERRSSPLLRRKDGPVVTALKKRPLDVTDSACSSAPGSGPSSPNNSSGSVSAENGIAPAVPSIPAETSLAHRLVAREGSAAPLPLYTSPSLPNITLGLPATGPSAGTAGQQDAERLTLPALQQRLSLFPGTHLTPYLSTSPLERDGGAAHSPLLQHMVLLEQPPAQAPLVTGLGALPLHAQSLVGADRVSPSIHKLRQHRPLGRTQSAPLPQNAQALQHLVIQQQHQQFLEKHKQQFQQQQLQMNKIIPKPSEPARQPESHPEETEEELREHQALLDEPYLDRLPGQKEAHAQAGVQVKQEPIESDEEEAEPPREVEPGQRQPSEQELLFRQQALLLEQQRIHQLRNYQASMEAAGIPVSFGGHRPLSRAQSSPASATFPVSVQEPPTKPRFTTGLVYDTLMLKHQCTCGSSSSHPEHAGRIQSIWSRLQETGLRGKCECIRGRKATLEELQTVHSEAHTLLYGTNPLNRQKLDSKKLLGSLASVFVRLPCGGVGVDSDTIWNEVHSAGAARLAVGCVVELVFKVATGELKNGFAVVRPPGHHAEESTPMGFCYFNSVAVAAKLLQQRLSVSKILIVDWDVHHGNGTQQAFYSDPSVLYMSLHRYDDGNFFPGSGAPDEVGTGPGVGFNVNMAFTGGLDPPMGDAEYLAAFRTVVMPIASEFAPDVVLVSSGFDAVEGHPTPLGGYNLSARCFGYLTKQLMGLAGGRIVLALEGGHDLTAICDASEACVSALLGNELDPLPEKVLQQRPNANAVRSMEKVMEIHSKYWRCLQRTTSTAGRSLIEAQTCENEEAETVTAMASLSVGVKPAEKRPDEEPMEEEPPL

| IC50 (Histone deacetylase 1 [1]) | EC50 [3] | Compound | IC50 (HCT-116 [2]) | IC50 (HMEC) | further results |
| --- | --- | --- | --- | --- | --- |
| 40 nM | 1000 nM | Nc1nc(NCc2ccc(C(=O)Nc3ccccc3N)cc2)nc(N2Cc3ccccc3C2)n1 | 500 nM | > 50000 nM | – |
| 700 nM | – | Nc1ccccc1NC(=O)c1ccc(CNc2ncccn2)cc1 | 2000 nM | – | – |
| 100 nM | – | COc1cc(OC)nc(NCc2ccc(C(=O)Nc3ccccc3N)cc2)n1 | 600 nM | – | – |
| 100 nM | 1000 nM | Nc1nc(NCc2ccc(C(=O)Nc3ccccc3N)cc2)nc(N2CCc3ccccc32)n1 | 800 nM | 10000 nM | – |
| 50 nM | – | COc1ccc(-c2ccnc(NCc3ccc(C(=O)Nc4ccccc4N)cc3)n2)cc1OC | 100 nM | – | – |
| 300 nM | – | CCCCn1cnc2c(NCc3ccc(C(=O)Nc4ccccc4N)cc3)nc(N)nc21 | 2000 nM | – | – |
| 300 nM | – | Cc1cc(C)nc(NCc2ccc(C(=O)Nc3ccccc3N)cc2)n1 | 1000 nM | – | – |
| 100 nM | – | COc1ccc(NCc2ccc(C(=O)Nc3ccccc3N)cc2)cn1 | 700 nM | – | – |
| 300 nM | – | Cc1ccc(C#N)c(OCc2ccc(C(=O)Nc3ccccc3N)cc2)n1 | 500 nM | – | – |
| 100 nM | – | COc1ccc(-c2cc(Cl)nc(NCc3ccc(C(=O)Nc4ccccc4N)cc3)n2)cc1OC | 400 nM | – | – |
| 80 nM | 1000 nM | Nc1ccccc1NC(=O)c1ccc(CNc2nc(NC3Cc4ccccc4C3)nc(N3CCOCC3)n2)cc1 | 2000 nM | > 50000 nM | – |
| 300 nM | – | Nc1ccccc1NC(=O)c1ccc(CSc2ccccn2)cc1 | 1000 nM | – | – |
| 200 nM | 800 nM | Nc1nc(NCc2ccc(C(=O)Nc3ccccc3N)cc2)nc(NC2CCCC2)n1 | 700 nM | 11000 nM | Activity (Histone deacetylase 1 [4]): Active; Activity [5]: Active; Activity [6]: Active; Activity [7]: inactive; Activity [8]: inactive; Activity [9]: inactive; Activity [10]: inactive; inhibition in vivo at 40 mg/kg/day (HCT-116 [11]): 50% |
| 50 nM | – | CCCCn1cnc2c(NCc3ccc(C(=O)Nc4ccccc4N)cc3)nc(Cl)nc21 | 100 nM | – | – |
| 100 nM | 1000 nM | Nc1nc(NCCc2ccccc2)nc(NCc2ccc(C(=O)Nc3ccccc3N)cc2)n1 | 300 nM | 21000 nM | – |
| 200 nM | 1000 nM | Nc1nc(NCc2ccc(C(=O)Nc3ccccc3N)cc2)nc(NC2Cc3ccccc3C2)n1 | 600 nM | 8000 nM | Activity (Histone deacetylase 1 [4]): Active; Activity [5]: Active; Activity [6]: Active; Activity [7]: inactive; Activity [8]: inactive; Activity [9]: inactive; Activity [10]: inactive |
| 200 nM | – | Nc1nc(NCc2ccc(C(=O)Nc3ccccc3N)cc2)c2nc[nH]c2n1 | 10000 nM | – | – |
| 100 nM | – | COc1cccc(NCc2ccc(C(=O)Nc3ccccc3N)cc2)n1 | 800 nM | – | – |
| 30 nM | 1000 nM | Nc1ccccc1NC(=O)c1ccc(CNc2nc(NC3CC3)nc(NC3Cc4ccccc4C3)n2)cc1 | 1000 nM | 18000 nM | – |
| 200 nM | 5000 nM | Nc1nc(NCc2ccc(C(=O)Nc3ccccc3N)cc2)nc(N2CCOCC2)n1 | 800 nM | > 40000 nM | Activity (Histone deacetylase 1 [4]): Active; Activity [5]: Active; Activity [6]: Active; Activity [7]: inactive; Activity [8]: inactive; Activity [9]: inactive; Activity [10]: inactive; inhibition in vivo at 40 mg/kg/day (HCT-116 [11]): 50% |
| 70 nM | 1000 nM | Nc1ccccc1NC(=O)c1ccc(CNc2nc(NCCN3CCOCC3)nc(NC3Cc4ccccc4C3)n2)cc1 | 600 nM | 16000 nM | Activity (Histone deacetylase 1 [4]): Active; Activity [5]: Active; Activity [6]: Active; Activity [7]: inactive; Activity [8]: inactive; Activity [9]: inactive; Activity [10]: inactive; inhibition in vivo at 20 mg/kg/day (HCT-116 [12]): 49% |
| 200 nM | – | COc1cc(NCc2ccc(C(=O)Nc3ccccc3N)cc2)ncn1 | 1000 nM | – | – |
| 100 nM | – | Nc1ccccc1NC(=O)c1ccc(CNc2cccc(F)n2)cc1 | 1000 nM | – | – |
